Consider nine molecules from PubChem BioAssay (NCI).

Among the test systems are OVCAR-4 ovarian; UACC-257 melanoma; UACC-62 melanoma; COLO 205 colon; SF-295 CNS; NCI-H522 lung; HT29 colon; SW-620 colon; RPMI-8226 leukemia; U251 CNS.
Assay in all cases: DTP human tumour cell line panel, 48 h

“And” between values parts separate entries of the source, which are not always exact repeats. Identical values can stand only once.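 48-hour exposure; five concentrations; linearly interpolated endpoints. At the GI50, growth is halved. TGI marks complete inhibition of growth.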

On to `O=C(CC1C(=O)Nc2ccccc2S1=O)Nc1ccc(Cl)cc1` (stereo not drawn), for which the TGI in the test on OVCAR-4 ovarian, in the test with UACC-257 melanoma, with UACC-62 melanoma, in the test on COLO 205 colon, in the test on SF-295 CNS and with NCI-H522 lung was above 100 µM in each case. In addition, the total growth inhibition concentration (TGI) with HT29 colon, in the test with SW-620 colon, in the test with RPMI-8226 leukemia and in the test with U251 CNS was above 100 µM each time.

As for `Cc1c(Sc2ccccc2)[n+](=O)c2cc(Cl)c(Cl)cc2n1[O-]`, the GI50 (as a rule, the concentration giving 50% growth inhibition) in the test on OVCAR-4 ovarian was 85.3 µM; in the test with UACC-257 melanoma it was 16 µM; with UACC-62 melanoma it was above 100 µM; with COLO 205 colon it was 49 µM; in the test with SF-295 CNS it was above 100 µM; in the test with NCI-H522 lung, 23.6 µM. In addition, the GI50 with HT29 colon is 79.9 µM; in the test on SW-620 colon, 29.5 µM; in the test on RPMI-8226 leukemia, 51.7 µM; with U251 CNS, above 100 µM. In addition, the TGI (as a rule, the concentration at which net growth stops) was above 100 µM in the test on OVCAR-4 ovarian; 44.6 µM in the test on UACC-257 melanoma; above 100 µM in the test with UACC-62 melanoma; above 100 µM in the test on COLO 205 colon; above 100 µM in the test with SF-295 CNS; 57.7 µM in the test with NCI-H522 lung. Besides, the TGI in the test with HT29 colon is above 100 µM; in the test with SW-620 colon, 96.1 µM; with RPMI-8226 leukemia it was above 100 µM; with U251 CNS, above 100 µM.

`COC1=C2CC(C)CC(OC)C(O)C(C)/C=C(\C)C(OC(N)=O)C(OC)/C=C\C=C(/C)C(=O)NC(=C(/C=N/N3CCCCC3)C1=O)C2=O` (stereo not drawn): the TGI is 19.3 µM in the test with OVCAR-4 ovarian; 27.7 µM with UACC-257 melanoma; 48.1 µM in the test with UACC-62 melanoma; 8.25 µM in the test with COLO 205 colon; 30.1 µM in the test with SF-295 CNS; 7.87 µM in the test on NCI-H522 lung. Also, the TGI in the test on HT29 colon amounted to 26.6 µM; with SW-620 colon, 8.7 µM; in the test with RPMI-8226 leukemia, 42 µM; in the test with U251 CNS, 20.8 µM.

As for `Clc1nc(Cl)c2ncn(Cc3ccc(Cn4cnc5c(Cl)nc(Cl)nc54)cc3)c2n1`, the GI50 is 13.6 µM in the test with OVCAR-4 ovarian; 4.87 µM in the test with UACC-257 melanoma; 12.5 µM in the test with UACC-62 melanoma; above 100 µM with COLO 205 colon; 7.68 µM in the test with SF-295 CNS; 5.65 µM with NCI-H522 lung. The GI50 in the test on U251 CNS was 13.2 µM. Moreover, the TGI in the test on OVCAR-4 ovarian was 28.6 µM; in the test on UACC-257 melanoma, 30.5 µM; in the test with UACC-62 melanoma, 27.8 µM; in the test on COLO 205 colon it was above 100 µM; in the test on SF-295 CNS it was 48.2 µM; in the test with NCI-H522 lung, 25 µM. The TGI in the test on HT29 colon turned out to be 16.4 µM; with SW-620 colon it was 8.91 µM; with RPMI-8226 leukemia, 7.07 µM; in the test on U251 CNS, 27.7 µM.

Regarding `O=S(=O)(C/C(=N\O)c1ccccc1)c1ccccc1`, the TGI in the test with OVCAR-4 ovarian, in the test with UACC-257 melanoma, in the test with UACC-62 melanoma, in the test with COLO 205 colon, with SF-295 CNS and with NCI-H522 lung was above 100 µM throughout. The TGI with HT29 colon, with SW-620 colon, with RPMI-8226 leukemia and with U251 CNS was above 100 µM in each case.

For the molecule `COc1ccc2nc(NC(=O)C(=O)C(C#N)c3ccc(Cl)c(Cl)c3)sc2c1` (stereo not drawn), the TGI in the test on OVCAR-4 ovarian, in the test with UACC-257 melanoma, in the test on UACC-62 melanoma, in the test with COLO 205 colon, in the test on SF-295 CNS and in the test on NCI-H522 lung was above 100 µM in each case. The TGI in the test with HT29 colon, in the test on SW-620 colon, in the test on RPMI-8226 leukemia and in the test on U251 CNS was above 100 µM in each case.

As for `O=C(O)/C=C/C(=O)N1C/C(=C\c2ccccc2)C(=O)/C(=C/c2ccccc2)C1`, the TGI in the test on OVCAR-4 ovarian stood at 16.4 µM; in the test with UACC-257 melanoma, 15.8 µM; in the test on UACC-62 melanoma, 8.7 µM; with COLO 205 colon, 24.3 µM; with SF-295 CNS, 11.8 µM; with NCI-H522 lung it was 4.94 µM. The TGI was 21.1 µM with HT29 colon, 6.09 µM with SW-620 colon, 6.22 µM in the test on RPMI-8226 leukemia and 3.79 µM in the test on U251 CNS.

On to `CC(=O)Oc1ccc(C(c2ccc(OC(C)=O)cc2)c2ccccn2)cc1`, for which the GI50 in the test with OVCAR-4 ovarian was 0.287 µM; with UACC-62 melanoma, 21.2 µM; in the test with COLO 205 colon it was 0.463 µM; in the test on SF-295 CNS, 37.1 µM; in the test on NCI-H522 lung, 59 µM; in the test with RPMI-8226 leukemia, 30.3 µM. In addition, the TGI in the test with OVCAR-4 ovarian was 4.42 µM; in the test on UACC-257 melanoma, above 100 µM; with UACC-62 melanoma it was above 100 µM; in the test with COLO 205 colon, 36.5 µM and > 69.4 µM; with SF-295 CNS, above 100 µM; in the test with NCI-H522 lung it was above 100 µM. In addition, the TGI in the test with HT29 colon, in the test on SW-620 colon, in the test with RPMI-8226 leukemia and in the test on U251 CNS was above 100 µM each time.

As for `OCCN1CCN(CC/C=C2\c3ccccc3Sc3ccc(Cl)cc32)CC1`, the GI50 in the test on OVCAR-4 ovarian is 8.38 µM and 8.18 µM; in the test with UACC-257 melanoma, 1.97 µM and 1.71 µM; in the test on UACC-62 melanoma, 1.73 µM and 1.77 µM; in the test with COLO 205 colon, 1.65 µM and 1.59 µM; in the test on SF-295 CNS it was 1.79 µM and 2.17 µM; in the test on NCI-H522 lung it was 11.6 µM and 1.75 µM. In addition, the GI50 with HT29 colon is 1.72 µM and 1.69 µM; in the test on SW-620 colon, 2.38 µM and 1.91 µM; in the test on RPMI-8226 leukemia, 1.17 µM and 3.12 µM; with U251 CNS it was 2.34 µM and 2.46 µM. The TGI in the test with OVCAR-4 ovarian was 20.7 µM and 21.1 µM; in the test with UACC-257 melanoma, 4.18 µM and 3.17 µM; with UACC-62 melanoma, 3.61 µM and 3.44 µM; in the test with COLO 205 colon, 3.24 µM and 3 µM; in the test on SF-295 CNS, 5.07 µM and 5.33 µM; in the test on NCI-H522 lung, 29.1 µM and 3.38 µM. The TGI in the test on HT29 colon was 3.92 µM and 3.42 µM; in the test with SW-620 colon, 5.48 µM and 4.01 µM; in the test with RPMI-8226 leukemia, 3.11 µM and 10.8 µM; with U251 CNS, 5.96 µM and 6.4 µM.
